Inconclusive results and toxic doses are left out. No stated cut-off is given here; in the data, active means T/C of 150% or more; inactive means T/C below 125%.
Test system: L1210 leukemia ip in BDF1 mice, survival T/C
Assay: NCI In Vivo Anticancer Drug Screen. Data for tumor model L1210 Leukemia (intraperitoneal) in B6D2F1 (BDF1) mice
Settings: endpoint: mean survival time, higher = longer survival
In short: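 Tumor was transplanted into mice, which were then dosed with test compound or vehicle alone. Survival was recorded for each group, and the treated figure was expressed relative to the control figure.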

[1] = dose: 100.0 mg/kg/injection, schedule: Q04DX003 (ip), vehicle: saline with Tween-80
[2] = dose: 200.0 mg/kg/injection, schedule: Q04DX003 (ip), vehicle: saline with Tween-80
[3] = dose: 100.0 mg/kg/injection, schedule: Q01DX009 (ip), vehicle: Klucel (hydroxypropylcellulose) (HPC)
[4] = dose: 200.0 mg/kg/injection, schedule: Q01DX009 (ip), vehicle: Klucel (hydroxypropylcellulose) (HPC)
[5] = dose: 400.0 mg/kg/injection, schedule: Q01DX009 (ip), vehicle: Klucel (hydroxypropylcellulose) (HPC)
[6] = dose: 100.0 mg/kg/injection, schedule: Q04DX002 (ip), vehicle: saline with Tween-80
[7] = dose: 200.0 mg/kg/injection, schedule: Q04DX002 (ip), vehicle: saline with Tween-80
[8] = dose: 50.0 mg/kg/injection, schedule: Q04DX002 (ip), vehicle: saline
[9] = dose: 100.0 mg/kg/injection, schedule: Q04DX002 (ip), vehicle: saline
[10] = dose: 100.0 mg/kg/injection, schedule: Q01DX001 (ip), vehicle: saline
[11] = dose: 50.0 mg/kg/injection, schedule: Q01DX009 (ip), vehicle: saline
[12] = dose: 100.0 mg/kg/injection, schedule: Q01DX009 (ip), vehicle: saline
[13] = dose: 100.0 mg/kg/injection, schedule: Q04DX003 (ip), vehicle: saline
[14] = dose: 200.0 mg/kg/injection, schedule: Q04DX003 (ip), vehicle: saline
[15] = dose: 100.0 mg/kg/injection, schedule: Q04DX003 (ip), vehicle: Klucel (hydroxypropylcellulose) (HPC)
[16] = dose: 200.0 mg/kg/injection, schedule: Q04DX003 (ip), vehicle: Klucel (hydroxypropylcellulose) (HPC)
[17] = dose: 400.0 mg/kg/injection, schedule: Q04DX003 (ip), vehicle: Klucel (hydroxypropylcellulose) (HPC)
[18] = dose: 200.0 mg/kg/injection, schedule: Q01DX009 (ip), vehicle: saline
[19] = dose: 400.0 mg/kg/injection, schedule: Q01DX009 (ip), vehicle: saline
[20] = dose: 100.0 mg/kg/injection, schedule: Q01DX001 (ip), vehicle: Klucel (hydroxypropylcellulose) (HPC)
[21] = dose: 200.0 mg/kg/injection, schedule: Q01DX001 (ip), vehicle: Klucel (hydroxypropylcellulose) (HPC)

Measured: T/C

CC1(ON(c2cc(Cl)cc(Cl)c2)C2(C)c3ccccc3-c3ccccc32)c2ccccc2-c2ccccc21
inactive: [1] 88 % of control | [2] 97 % of control

Cc1ccc([N+](=O)[O-])cc1NC(=O)NCCc1ccccc1
inactive: [3] 97 % of control | [4] 87 % of control | [5] 92 % of control

CN(C)CCCOS(C)(=O)=O
inactive: [6] 105 % of control | [7] 99 % of control

COc1ccc(C2OCC(c3ccccc3)O2)cc1 (configuration not stated)
inactive: dose: 222.0 mg/kg/injection, schedule: Q01DX Z (ip), vehicle: methylcellulose (MC) 93 % of control | dose: 500.0 mg/kg/injection, schedule: Q01DX Z (ip), vehicle: methylcellulose (MC) 93 % of control

COc1cc2c(cc1O)C(CCc1cc(OC)c(OC)c(OC)c1)=NCC2
inactive: [8] 101 % of control | [9] 104 % of control | dose: 200.0 mg/kg/injection, schedule: Q04DX002 (ip), vehicle: saline 104 % of control

NS(=O)(=O)c1ccc(Cc2[nH]c(=O)[nH]c(=O)c2Br)cc1
inactive: dose: 25.0 mg/kg/injection, schedule: Q01DX001 (ip), vehicle: saline 101 % of control | dose: 50.0 mg/kg/injection, schedule: Q01DX001 (ip), vehicle: saline 95 % of control | [10] 101 % of control

c1ccc2cc3c(cc2c1)Nc1cc2ccccc2cc1N3
inactive: dose: 100.0 mg/kg/injection, schedule: Q01DX009 (ip), vehicle: saline with Tween-80 93 % of control | [1] 97 % of control | dose: 200.0 mg/kg/injection, schedule: Q01DX009 (ip), vehicle: saline with Tween-80 93 % of control | [2] 101 % of control | dose: 400.0 mg/kg/injection, schedule: Q01DX009 (ip), vehicle: saline with Tween-80 88 % of control | dose: 400.0 mg/kg/injection, schedule: Q04DX003 (ip), vehicle: saline with Tween-80 103 % of control

C1=NCCCN1
inactive: [11] 89 % of control | [12] 94 % of control | [13] 97 % of control | [14] 100 % of control

CCOc1ccc(OCC)c2c1C(=O)c1ccccc1C2=O
inactive: [3] 97 % of control | [15] 95 % of control | [4] 100 % of control | [16] 100 % of control | [5] 97 % of control | [17] 97 % of control

OC1c2ccccc2C=Cc2ccccc21
inactive: [15] 104 % of control | [16] 101 % of control | [17] 101 % of control

COc1cc(/C=c2\[nH]c(=O)/c(=C/c3cc(OC)c(OC)c(OC)c3)[nH]c2=O)cc(OC)c1OC
inactive: [3] 86 % of control | [15] 93 % of control | [16] 93 % of control | [5] 87 % of control | [17] 88 % of control

Cc1nonc1C(=O)N(C)C
inactive: dose: 25.0 mg/kg/injection, schedule: Q04DX002 (ip), vehicle: saline 98 % of control | [8] 102 % of control | [9] 102 % of control

COc1cccc2c1CC/C(=C\c1cccnc1)C2=O
inactive: dose: 100.0 mg/kg/injection, schedule: Q04DX003 (ip), vehicle: carboxymethylcellulose (CMC) 103 % of control | dose: 200.0 mg/kg/injection, schedule: Q04DX003 (ip), vehicle: carboxymethylcellulose (CMC) 102 % of control | dose: 400.0 mg/kg/injection, schedule: Q04DX003 (ip), vehicle: carboxymethylcellulose (CMC) 95 % of control

c1ccc(CC2(Cc3ccccc3)SCCS2)cc1
inactive: [15] 102 % of control | [16] 91 % of control | [17] 89 % of control

CCSCC(C)O (configuration not stated)
inactive: [6] 100 % of control | [7] 100 % of control | dose: 400.0 mg/kg/injection, schedule: Q04DX002 (ip), vehicle: saline with Tween-80 94 % of control

CCCCCCCCNC(=O)C1OC(n2cnc3c(N)ncnc32)C(O)C1O (configuration not stated)
inactive: dose: 100.0 mg/kg/injection, schedule: Q01DX005 (ip), vehicle: saline with Tween-80 86 % of control | [12] 104 % of control | dose: 200.0 mg/kg/injection, schedule: Q01DX005 (ip), vehicle: saline with Tween-80 105 % of control | [18] 91 % of control | [19] 110 % of control

CCOc1cc[n+]([O-])cc1
inactive: [11] 90 % of control | [20] 96 % of control | [12] 90 % of control | [13] 100 % of control | [21] 108 % of control | [18] 90 % of control | [14] 96 % of control

C[P+]1(c2ccccc2)CCC(N)=C(C#N)C1 (configuration not stated)
inactive: [6] 100 % of control

Cc1ccc[n+]([O-])c1Cl
inactive: [13] 100 % of control | [14] 87 % of control

O=c1/c(=C\c2ccccc2)sc2n1CCN=2
inactive: [10] 89 % of control | dose: 200.0 mg/kg/injection, schedule: Q01DX001 (ip), vehicle: saline 92 % of control | dose: 400.0 mg/kg/injection, schedule: Q01DX001 (ip), vehicle: saline 101 % of control

CCOC(OCC)c1cc(=O)[nH]c(NC(C)=O)n1
inactive: [3] 101 % of control | [4] 101 % of control | [5] 106 % of control

O=C(CCBr)N1CCCN(C(=O)CCBr)CC1
inactive: dose: 106.0 mg/kg/injection, schedule: Q01DX Z (ip), vehicle: carboxymethylcellulose (CMC) 114 % of control | dose: 160.0 mg/kg/injection, schedule: Q01DX Z (ip), vehicle: carboxymethylcellulose (CMC) 119 % of control

Cc1cn(C2CCCCC2)c(=O)[nH]c1=O
inactive: dose: 25.0 mg/kg/injection, schedule: Q01DX Z (ip), vehicle: methylcellulose (MC) 89 % of control | dose: 50.0 mg/kg/injection, schedule: Q01DX Z (ip), vehicle: methylcellulose (MC) 92 % of control

Cc1cc(C)c(-n2c(-c3ccc(Cl)cc3)nnc2-c2ccc(Br)cc2)c(C)c1
inactive: [15] 101 % of control | [16] 90 % of control | [17] 95 % of control

[Br][Sn]([Br])([CH]1CCCCC1)[CH]1CCCCC1
inactive: dose: 9.38 mg/kg/injection, schedule: Q01DX001 (ip), vehicle: other 91 % of control | dose: 18.75 mg/kg/injection, schedule: Q01DX001 (ip), vehicle: other 93 % of control

N#CC1CC=CCC1 (configuration not stated)
inactive: dose: 6.25 mg/kg/injection, schedule: Q01DX009 (ip), vehicle: saline 113 % of control | dose: 6.25 mg/kg/injection, schedule: Q04DX003 (ip), vehicle: saline 101 % of control | dose: 12.5 mg/kg/injection, schedule: Q01DX009 (ip), vehicle: saline 121 % of control | dose: 12.5 mg/kg/injection, schedule: Q04DX003 (ip), vehicle: saline 90 % of control | dose: 25.0 mg/kg/injection, schedule: Q01DX009 (ip), vehicle: saline 103 % of control | dose: 25.0 mg/kg/injection, schedule: Q04DX003 (ip), vehicle: saline 113 % of control

CC1=C(C)CC2C(=O)OC(=O)C2C1 (configuration not stated)
inactive: [12] 98 % of control | [15] 106 % of control | [13] 98 % of control | [18] 102 % of control | [16] 95 % of control | [14] 105 % of control | [19] 98 % of control | [17] 98 % of control | dose: 400.0 mg/kg/injection, schedule: Q04DX003 (ip), vehicle: saline 105 % of control

CCN1CC(C)(C)N(C(=O)c2ccccc2)CC1(C)C
inactive: dose: 5.0 mg/kg/injection, schedule: Q01DX001 (ip), vehicle: carboxymethylcellulose (CMC) 98 % of control | dose: 10.0 mg/kg/injection, schedule: Q01DX001 (ip), vehicle: carboxymethylcellulose (CMC) 106 % of control | dose: 20.0 mg/kg/injection, schedule: Q01DX001 (ip), vehicle: carboxymethylcellulose (CMC) 95 % of control | dose: 40.0 mg/kg/injection, schedule: Q01DX001 (ip), vehicle: carboxymethylcellulose (CMC) 109 % of control | dose: 80.0 mg/kg/injection, schedule: Q01DX001 (ip), vehicle: carboxymethylcellulose (CMC) 98 % of control

Cc1ccc(NC(=O)C(Br)C(Br)c2ccccc2)cc1Cl (configuration not stated)
inactive: [3] 96 % of control | [4] 92 % of control | [5] 88 % of control

C/C=C/c1ccc2oc(-c3ccc(OC4OC(C)C(O)C(O)C4O)cc3)c(C)c2c1 (configuration not stated)
inactive: [20] 93 % of control | [21] 90 % of control | dose: 400.0 mg/kg/injection, schedule: Q01DX001 (ip), vehicle: Klucel (hydroxypropylcellulose) (HPC) 96 % of control
